Source: PMC9181902 (Journal of the American Chemical Society, 2022)
Entries after “also recorded” stand apart in the source; their conditions may differ. Blank lines part the entries; values can stand above or below the compound they belong to.

Legend:
hOAT [1] = target: T1, hOAT (Homo sapiens, UniProt P04181); conditions: cited from earlier work
T1 sequence (P04181 26-439): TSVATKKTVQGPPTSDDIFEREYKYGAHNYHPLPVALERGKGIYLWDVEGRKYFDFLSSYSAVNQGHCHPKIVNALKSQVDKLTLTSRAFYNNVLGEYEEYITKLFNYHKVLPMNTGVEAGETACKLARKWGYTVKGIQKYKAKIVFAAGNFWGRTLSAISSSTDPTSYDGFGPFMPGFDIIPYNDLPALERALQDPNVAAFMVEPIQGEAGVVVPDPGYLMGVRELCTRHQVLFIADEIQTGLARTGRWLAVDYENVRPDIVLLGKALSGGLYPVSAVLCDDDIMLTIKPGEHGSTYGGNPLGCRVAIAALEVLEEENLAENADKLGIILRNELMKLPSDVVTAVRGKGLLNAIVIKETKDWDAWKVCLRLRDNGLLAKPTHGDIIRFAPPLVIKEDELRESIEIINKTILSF

[2] = cited from earlier work
GABA-AT [3] = experiment: Inhibition of GABA-AT; type: biochemical, human; conditions: even at high concentrations
Asp-AT = experiment: Inhibition of Asp-AT; type: biochemical, human; conditions: even at high concentrations
Ala-AT = experiment: Inhibition of Ala-AT; type: biochemical, human; conditions: even at high concentrations
hOAT [4] = target: T1, hOAT; experiment: Dialysis of inactivated hOAT, return of enzyme activity; type: biochemical
hOAT [5] = target: T1, hOAT; experiment: Partition ratio; type: biochemical
hOAT [6] = target: T1, hOAT; experiment: Stopped-flow transient state measurements of hOAT; type: biochemical
GABA-AT [7] = conditions: cited from earlier work

Structure (SMILES): N[C@H]1C[C@@H](C(=O)O)CC1=C(C(F)(F)F)C(F)(F)F [6c, (1S,3S)-3-amino-4-(hexafluoropropan-2-ylidenyl)cyclopentane-1-carboxylic Acid]
- Ki (hOAT [1]): 65 ± 10 µM
- in vivo antitumor efficacy [2]: potent in vivo antitumor efficacy

- enzyme activity recovered after dialysis (hOAT [4]; 91 h of dialysis, varying equivalents): no enzyme activity was recovered
- fraction undergoing ketimine hydrolysis to product 37 and PMP (hOAT [5]): ~ 70%
- fraction of the reaction forming tight-binding adduct 34 (hOAT [5]; according to the partition ratio (1/3.38)): ~ 30%
- first successive rate constant from fit of CCD data sets (k2’) (hOAT [6]; 500 μM of 10b): 0.22 s⁻¹
- second successive rate constant from fit of CCD data sets (k3’) (hOAT [6]; 500 μM of 10b): 0.21 s⁻¹
- third successive rate constant from fit of CCD data sets (k4) (hOAT [6]; 500 μM of 10b): 0.03 s⁻¹
- rate constant for formation of P1 from M2 (k4) (hOAT [6]; 410 nm, second phase, average): ~ 0.02 s^−1
Structure (SMILES): N[C@H]1C=C(C(=O)O)C[C@H]1C(F)F [10b, (3S,4R)-3-Amino-4-(difluoromethyl)cyclopent-1-ene-1-carboxylic Acid]
- inhibitory activity against GABA-AT (GABA-AT [3]): weak reversible inhibitor; also recorded: weak reversible inhibitory activity
- inhibitory activity against Asp-AT (Asp-AT): weak reversible inhibitory activity
- inhibitory activity against Ala-AT (Ala-AT): weak reversible inhibitory activity

- enzyme activity recovered after dialysis (hOAT [4]; 48 h of dialysis): no enzyme activity was recovered
Structure (SMILES): N[C@H]1C[C@@H](C(=O)O)CC1=C(F)F [compound 1, (1S,3S)-3-amino-4-(difluoromethylene)cyclopentane-1-carboxylic acid]

Structure (SMILES): N[C@H]1C=C(C(=O)O)CC1=C(F)F [compound 7, (S)-3-amino-4-(difluoromethylenyl)cyclopent-1-ene-1-carboxylic acid]
- enzyme activity recovered after dialysis (hOAT [4]; 48 h of dialysis): no enzyme activity was recovered
- type of inhibition of GABA-AT (GABA-AT [7]): partially irreversible inhibitors
